“And” between values parts separate entries of the source, which are not always exact repeats. Equal values may be shown once. Read-outs that look alike come from different tables or passages of the source.
Columns and labels:
[1] = test system: Vero-E6 cells; assay: cells; format: cell-based
[2] = test system: CaCo2 cells; details: 10 μM in-assay concentration; ENZO library; amiodarone as positive control
[3] = test system: A549 cells; assay: PLD assay of predicted ENZO library compounds in A549 cells; details: Homo sapiens, A549, read-out: PLD effect % in A549
[4] = test system: A549-ACE2 cells; assay: cells; format: cell-based; details: A549-ACE2, 24 h, read-out: PLD_Effect(%) A549-ACE2
[5] = test system: SARS-CoV-2; details: 10 µM; cited from earlier work
[6] = test system: SARS-CoV-2; details: Caco-2, 20 µM; cited from earlier work
[7] = cited from earlier work
[8] = Chlorocebus sabaeus, Vero C1008, 24 h, read-out: PLD effect % in Vero-E6
[9] = Chlorocebus sabaeus, Vero C1008, 24 h, read-out: PLD_Effect(%) VERO-E6
[10] = Chlorocebus sabaeus, Vero C1008, 24 h; read-out: PLD Effect in % 5 µM
[11] = Chlorocebus sabaeus, Vero C1008, 24 h; read-out: PLD Effect in % 10 µM
[12] = Chlorocebus sabaeus, Vero C1008, 24 h; read-out: PLD Effect in % 20 µM
[13] = Chlorocebus sabaeus, Vero C1008; read-out: PLD EC50
[14] = value is the negative log10 of mol/L
[15] = Chlorocebus sabaeus, Vero C1008, read-out: PLD EC50 µM

CSc1ccc2c(c1)N(CCC1CCCCN1C)c1ccccc1S2 (stereo not drawn) [Thioridazine]
activation at 10 µM [1, 8]: 44.7% | PLD effect % in CaCo2 [2]: 22.7% | activation at 10 µM [3]: 33.5%

CN(C)CCCN1c2ccccc2Sc2ccc(Cl)cc21 [Chlorpromazine]
activation at 10 µM [1, 8]: 116% | PLD effect % in CaCo2 [2]: 67.1% | activation at 10 µM [3]: 80.8%

CN1CCN(CCCN2c3ccccc3Sc3ccc(C(F)(F)F)cc32)CC1 [Trifluoperazine]
activation at 10 µM [1, 8]: 102% | PLD effect % in CaCo2 [2]: 63.2% | activation at 10 µM [3]: 97.8%

CC(CN1c2ccccc2Sc2ccccc21)N(C)C (stereo not drawn) [Promethazine]
activation at 10 µM [1, 8]: 90.7% | PLD effect % in CaCo2 [2]: 37.8% | activation at 10 µM [3]: 81.9%

COCC(=O)O[C@]1(CCN(C)CCCc2nc3ccccc3[nH]2)CCc2cc(F)ccc2[C@@H]1C(C)C [mibefradil, reference compound]
activation at 10 µM [1, 9]: 88.2% | activation at 5 µM [1, 10]: 62% | activation at 10 µM [1, 11]: 80.5% | activation at 20 µM [1, 12]: 2.41% | EC50 [1, 13]: 2.45 µM | activation at 10 µM [4]: 97.4% | Vero-E6 CPE inhibition % [5]: -0.26 | CaCo2 CPE inhibition % [6]: 52.45% | pchembl_value (type AC50), Dopamine D3 receptor [7]: 6.08 | pchembl_value (type AC50), Mu opioid receptor [7]: 6.01 | pchembl_value (type AC50), Serotonin 1a (5-HT1a) receptor [7]: 6.13 | AC50 ([7]; read-out: AC50 (value), Dopamine D3 receptor): 825 nM | AC50 ([7]; read-out: AC50 (value), Mu opioid receptor): 979 nM | AC50 ([7]; read-out: AC50 (value), Serotonin 1a (5-HT1a) receptor): 746 nM | IC50 ([7]; read-out: IC50 (value), Voltage-gated L-type calcium channel alpha-1C subunit): 250 nM | pchembl_value (type IC50), Voltage-gated L-type calcium channel alpha-1C subunit [7, 14]: 6.60 | pchembl_value (type IC50), Voltage-gated T-type calcium channel alpha-1G subunit [7, 14]: 6.00 and 7.19 | pchembl_value (type IC50), Voltage-gated T-type calcium channel alpha-1H subunit [7, 14]: 6.00 and 6.89 | pchembl_value (type IC50), Voltage-gated T-type calcium channel alpha-1I subunit [7, 14]: 6.90 and 6.00 and 6.89

CNCC[C@@H](Oc1ccccc1C)c1ccccc1 [Atomoxetine]
activation at 10 µM [1, 8]: 27.7% | PLD effect % in CaCo2 [2]: 0.7% | activation at 10 µM [3]: 70.9%

CN1CCC[C@@H]1CCO[C@](C)(c1ccccc1)c1ccc(Cl)cc1 [Clemastine]
activation at 10 µM [1, 8]: 30.1% | PLD effect % in CaCo2 [2]: 6.9% | activation at 10 µM [3]: 50.4%

CN(C/C=C/c1ccccc1)Cc1cccc2ccccc12 [Naftifine]
activation at 10 µM [1, 8]: -1.6% | PLD effect % in CaCo2 [2]: −3.3% | activation at 10 µM [3]: 7.5%

c1ccc(CNc2nc(NCc3ccccc3)c3ccccc3n2)cc1 [DBeQ, reference compound]
PLD Effect in % 5 µM ([1]; 5 µM): 73.45% | PLD Effect in % 10 µM ([1]; 10 µM): 88.88% | PLD Effect in % 20 µM ([1]; 20 µM): -36.11% | EC50 ([1]; read-out: PLD EC50): 1.19 µM | Vero-E6 CPE inhibition % [5]: -0.3 | CaCo2 CPE inhibition % [6]: 100.89%

COC(=O)C1=C(C)NC(C)=C(C(=O)OCCCN2CCC(c3ccccc3)(c3ccccc3)CC2)[C@@H]1c1cccc([N+](=O)[O-])c1 [Dexniguldipine, reference compound]
activation at 5 µM ([1]; Chlorocebus sabaeus, Vero C1008, 24 h, read-out: PLD Effect in % 5 µM): 83.1% | activation at 10 µM ([1]; Chlorocebus sabaeus, Vero C1008, 24 h, read-out: PLD Effect in % 10 µM): 115% | activation at 20 µM ([1]; Chlorocebus sabaeus, Vero C1008, 24 h, read-out: PLD Effect in % 20 µM): 127% | EC50 [1, 15]: 2.48 µM | Vero-E6 CPE inhibition % [5]: -0.15% | CaCo2 CPE inhibition % [6]: 97.57%

NCCC(Oc1ccc(C(F)(F)F)cc1)c1ccccc1 (stereo not drawn) [norfluoxetine, reference compound]
activation at 10 µM [1, 9]: 62.2% | activation at 5 µM [1, 10]: 92.1% | activation at 10 µM [1, 11]: 112% | activation at 20 µM [1, 12]: 198% | EC50 [1, 15]: 1.96 µM | activation at 10 µM [4]: 108% | Vero-E6 CPE inhibition % [5]: -0.11% | CaCo2 CPE inhibition % [6]: 94.99%

COc1cc2c(Nc3ccc(Br)cc3F)ncnc2cc1OCC1CCN(C)CC1 [Vandetanib (ZD6474), Vandetanib, reference compound]
activation at 5 µM [1, 10]: 129% | activation at 10 µM [1, 11]: 136% | activation at 20 µM [1, 12]: -32.7% | EC50 [1, 13]: 1.05 µM | Vero-E6 CPE inhibition % [5]: 0.29 | CaCo2 CPE inhibition % [6]: 51.24

COC(=O)C1=C(C)NC(C)=C(C(=O)NCCCN2CCC(c3ccccc3)(c3ccccc3)CC2)C1c1ccc([N+](=O)[O-])cc1 (stereo not drawn) [SNAP-5089, reference compound]
activation at 5 µM [1, 10]: 66.5% | activation at 10 µM [1, 11]: 78.4% | activation at 20 µM [1, 12]: 24.9% | EC50 [1, 15]: 2.01 µM | Vero-E6 CPE inhibition % [5]: -0.12% | CaCo2 CPE inhibition % [6]: 72.63%

CN(C)CCCN1c2ccccc2CCc2ccc(Cl)cc21 [Clomipramine]
activation at 10 µM [1, 8]: 70.9% | PLD effect % in CaCo2 [2]: 74.6% | activation at 10 µM [3]: 66.2%
